Data taken from patent publication US20080214471A1, “Method for inhibition of viral infection” (priority 1992, published 2008).

Legend:
[1] = system: HDV virions; assay: In vivo treatment of HDV in HBV-transgenic mice, serum HDV virions by RT-PCR; settings: 50 mg/kg/day IP for one week
[2] = system: Huh-7 cells; assay: Standard XTT assay (overall cell metabolism); assay type: cell-based; settings: at a concentration that effectively inhibits HDV virion production
Excerpt: (§1) FIG. 8 illustrates that FT1-277 inhibits production of HDV virions. Huh-7 cells were co-transfected with HDV and HBV encoding plasmids to establish production of HDV virions, as described in the text, and grown in the presence of the indicated concentrations of FTI-277. HDV genome replication in the cells, and the amount of HDV genome-containing virions released into the supernatants, were monitored by northern blot analysis with a probe for HDV genomic RNA (left panel). The results were quantitated with a phosphoimager and the amount of virions produced at each concentration of FTI-277, expressed as a percentage of the no drug control, was plotted (purple bars, right panel). Also plotted are the results of assays for cellular metabolism (XTT assay, yellow bars), and general protein synthesis and secretion (HBV surface antigen released into the media supernatants, blue bars).
(§2) FTI-277, a prenylation inhibitor, was tested for its ability to inhibit HDV virion production. […] Non-specific toxicity was assessed by free HBV surface antigen assay, which assesses effects on general protein synthesis and secretion, and a standard XTT assay, which measures overall cell metabolism.

[3] = system: HDV virions; assay: Inhibition of HDV virion production in co-transfected Huh-7 cells (northern blot for HDV genomic RNA); assay type: cell-based, hepatitis delta virus (HDV); settings: Huh-7 cells co-transfected with HDV and HBV plasmids
Excerpt: as §1
Completely infectious HDV particles were produced using the system disclosed in Sureau et al., J. Virol., 66:1241-5 (1992). […]
as §2

[4] = Serum alanine aminotransferase (ALT) assay for non-specific toxicity; settings: HBV-transgenic mice, 50 mg/kg/day IP for one week, on average
[5] = system: Huh-7 cells; assay: Free HBV surface antigen assay (general protein synthesis and secretion); assay type: cell-based; settings: at a concentration that effectively inhibits HDV virion production
Excerpt: as §1, §2

For `COC(=O)[C@H](CCSC)NC(=O)c1ccc(NC[C@@H](N)CS)cc1-c1ccccc1` [FTI-277], the “production and release of HDV virions into the serum” value [1] was “completely eliminated”, the “overall cell metabolism (XTT assay)” value [2] was “essentially does not affect” and the HDV virion production ([3]; micromolar concentration) was “no detectable HDV virions produced”. The HDV virion production ([3]; mid-nanomolar concentration) was “dramatically inhibited”, the “level of ALT compared with the placebo” value [4] was “same level of ALT as the placebo” and the “general protein synthesis and secretion (free HBV surface antigen released into media)” value [5] was “essentially does not affect”.
